Measurements taken from patent US12532889B2, “Herbicidal compositions comprising glufosinate” (BASF SE, priority 2023, dated 2026).

Test system: ELEIN (Eleusine indica)
Experiment: Post-emergence application in field trials (Example A)
Type: in vivo
Settings: A-1 25, B-6 252 g ai/ha, water 400 l/ha
[1] = Table 5.1, ELEIN height 5-20 cm, 21 DAT
[2] = Table 5.6, ELEIN growth stage 14-15, height 9-14 cm, 28 DAT

SMILES | % herbicidal activity [1] [%] | % herbicidal activity [2] [%]
CCOC(=O)COc1ccccc1Oc1nc(-n2c(=O)cc(C(F)(F)F)n(C)c2=O)c(F)cc1Cl [A-1, ethyl 2-[2-[[3-chloro-5-fluoro-6-[3-methyl-2,6-dioxo-4-(trifluoromethyl)pyrimidin-1-yl]-2-pyridyl]oxy]phenoxy]acetate] | 57 | 91
CP(=O)(O)CC[C@H](N)C(=O)O.N [B-6, glufosinate-P-ammonium] | 0 | 40
